A short description of assay [1]: Isolation of azido sugar containing glycoproteins from Jurkat cell lysate by click labeling and streptavidin agarose. The note with it: elution 1% SDS in H2O at 95° C. for 5 min. The method, then:
In order to isolate azido sugar containing glycoproteins from cell mixture, the Jurkat cells were cultured in Ac4GlcNAz supplemented media for 24 h. In this culturing, Jurkat cells were cultured in 100 mL RPMI 1640 media supplemented with 10% FBS at two T175 tissue culture flasks. When cell density reached ˜10×10^6 cells/mL, 100 μL of Ac4GlcNAz (100 mM in DMSO) and DMSO (control) were added, respectively. The flasks were incubated at 37° C. humidified incubator with 5% CO2 for 24 h. After incubation, the Jurkat cells were collected by centrifugation at 600×g for 5 min, and washed with PBS five times. The cell pellet was suspended in PBS to adjust the cell density at 50×10^6 cells/mL, and transferred 1 mL each to 1.5 mL tube. The cells were collected again by centrifugation at 600×g for 5 min. Then, 1 mL of 0.5% SDS/PBS was added to each tube, and lysated by sonication. The cell lysate was prepared at ˜3 mg/mL in 0.5% SDS/PBS.
Cell lysate was incubated with N3′-ethyl biotin alkyne 118 or biotin alkyne in the presence of CuSO4, THPTA, and sodium ascorbate at room temperature as described below. N3′-Ethyl biotin alkyne 118 and biotin alkyne (Invitrogen) were used to perform parallel protein enrichment experiments. Biotin alkyne has the structure: […]

In assay [2] the target is T1, streptavidin (Streptomyces avidinii, UniProt P22629).
T1 construct: purchased ForteBio
T1 sequence (P22629 25-183): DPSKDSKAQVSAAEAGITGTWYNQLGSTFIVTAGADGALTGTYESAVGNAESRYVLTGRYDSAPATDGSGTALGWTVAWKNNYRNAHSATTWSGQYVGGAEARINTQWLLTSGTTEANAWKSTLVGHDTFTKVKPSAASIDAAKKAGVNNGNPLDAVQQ
As to the kind of experiment: Kinetic measurement of rate constants, label-free ForteBio system, N3′-ethyl biotin immobilized on sensor tips. It is filed as binding. The method, then:
The binding constant and on-and-off rate constant of N3′-ethyl biotin with streptavidin were tested using a label-free ForteBio system. The N3′-ethyl biotin 117 was covalently immobilized to amine reactive sensor tips from ForteBio. To generate the association curve, the N3′-ethyl biotin labeled biosensor tips were incubated with streptavidin at 25° C. The dissociation curve was determined by incubating the streptavidin bound sensor tips in PBS buffer described above, as well as in PBS buffer containing 2 mM biotin at 25° C. […] The dissociation constant kD of N3′-ethyl biotin is about 0.8 nM.
The details of fluorescent capture and release assay were follows. All interaction analyses were conducted at 25° C. in kinetic buffer (PBS, 0.1% BSA, 0.05% Tween-20, pH 7.2). The amine reactive biosensor tips from ForteBio were prewet for 20 min in water prior to use. The prepared samples and buffers were added to a 96-well microplate at 200 μL per well according the following sample layout, and the entire 96-well plate was agitated at 1000 rpm. Eight biosensor tips were performed the kinetic assay in parallel. Each amine reactive biosensor tip was equilibrated in MES buffer for 5 min, then activated with EDC/NHS for 5 min. The activated biosensor tip was labeled with 2 mM N3′-ethyl biotin 117 for 10 min, then quenched with 1 M ethanolamine for 5 min. The N3′-ethyl biotin 117 immobilized biosensor tip was incubated in kinetic buffer for 5 min to generate baseline, then incubated with 2 μg/mL streptavidin in kinetic buffer or kinetic buffer (control) at 1000 rpm for 10 min to generate association curve, followed by incubation with kinetic buffer or 2 mM biotin in kinetic buffer at 1000 rpm for 10 min to generate dissociation curve. The ForteBio Data Analysis Octet software was used to process the curve by subtracting sample curve from reference curve, and the kinetic data was calculated by fitting curve.

Assay [3] addresses T2, M-280 Streptavidin Dynabeads (streptavidin) (Streptomyces avidinii, UniProt P22629).
T2 construct: purchased Invitrogen
As to the kind of experiment: Fluorescent capture and release assay on M-280 Streptavidin Dynabeads. It is filed as binding. As to the method:
In order to evaluate the binding affinity and reversibility of N3′-ethyl biotin with streptavidin, a simple fluorescent binding and release assay was designed. Briefly, N3′-ethyl biotin-AF488 conjugate 117 was incubated with M-280 Streptavidin Dynabeads in pH 7.4 PBS buffer. After 25 min incubation at room temperature, the magnetic beads were separated from the supernatant, which was used to measure the capture efficiency, by measuring the fluorescent intensity of the supernatant solution to determine the amount that was not captured. Then, the N3′-ethyl biotin 117 bound magnetic beads were washed with PBS buffer to remove weak or non-specific binding. The reversibility was tested by incubating the N3′-ethyl biotin 117 bound magnetic beads with 2 mM biotin in PBS buffer at room temperature for 5 min, then the magnetic beads were concentrated by a magnet, and the fluorescent intensity in the solution was measured to determine the amount that was released. As a control, biocytin-AF488 conjugate was also tested in the same assay format.
The details of fluorescent capture and release assay were as follows. 100 μL of M280 Streptavidin Dynabeads (10 mg/mL, Invitrogen) was transferred to a 1.5 mL centrifuge tube, and washed with 500 μL PBS three times. […]

T2 sequence (P22629 25-183): as above

For `C#CCNC(=O)CCOCCOCCOCCOCCNC(=O)CCCC[C@@H]1SC[C@@H]2NC(=O)N[C@@H]21` [biotin alkyne], in assay [1], the “quality of isolated proteins” value is reported as “contaminated with streptavidin”.
As a reminder, the Kd is the concentration at which binding is half-saturated. Regarding `CCN1C(=O)N[C@H]2CS[C@@H](CCCCC(=O)O)[C@H]21` [N3′-ethyl biotin], the “off-rate koff in the presence of 1 mM bis-biotin competing reagent” value in assay [2] (1 mM bis-biotin) is given as ~5.8×10^−2 S^−1. In assay [2] (25° C.), the “on-rate kon with streptavidin” value was ~1.5×10^5 M^−1S^−1. Moreover, the “off-rate koff in the presence of 2 mM biotin” value in assay [2] (25° C., 2 mM biotin) is recorded as ~5.8×10^−2 S^−1. Also, the Kd in assay [2] (25° C., read-out: dissociation constant kD) is approximately 0.8 nM.
As for Biotin, in assay [2] (in the presence of 1 mM bis-biotin competing reagent), the “reversibility of streptavidin binding” value is “almost irreversible”.
As for `N[C@@H](CCCCNC(=O)CCCC[C@@H]1SC[C@@H]2NC(=O)N[C@@H]21)C(=O)O` [Biocytin], the Capture efficiency in assay [3] (0.2 μM in PBS pH 7.4, 25 min room temperature) is 96 ± 2%. Further, the Release efficiency in assay [3] (2 mM biotin in PBS, room temperature 5 min) is less than 5%.

The values are drawn from patent US11731982B2, “Biotin derivatives” (LIFE TECHNOLOGIES CORPORATION, priority 2010, dated 2023).
